Reference: PMC12472391, “Borylated Five-Membered Ring Iminosugars: Synthesis, Spectroscopic Analysis, and Biological Evaluation for Glycosidase Inhibition and Anticancer Properties for Application in Boron Neutron Capture Therapy (BNCT)—Part 1” (Pharmaceuticals, 2025)

Key:
SJ-G2 glioblastoma cells = experiment: Cancer screening, MTT growth inhibition; assay type: cell-based; settings: for inhibition at 25 µM: SJ-G2, 72-h exposure, read-out: SJ-G2 Glioblastoma, Percentage (%) Cell Growth Inhibition in response to 25 µM of Drug; for SJ-G2 Glioblastoma, Percentage (%) Cell Growth Inhibition in response to 25 µM of Drug: 72-h exposure
Procedure: (§1) Two assays were run: the dose screen to ascertain cell growth inhibition in response to 25 µM of drug (on a blue background) and the dose response (GI50) (on a green background). For a discussion of BNCT as a radiotherapeutic modality, a rationalisation is provided here.
(§2) All test agents were prepared as stock solutions (20 mM) in dimethyl sulfoxide (DMSO) and stored at −20 °C. Cell lines used in the study included HT29, (colorectal carcinoma); U87, SJ-G2, (glioblastoma); MCF-7, (breast carcinoma); A2780 (ovarian carcinoma); H460 (lung carcinoma); A431 (skin carcinoma); Du145 (prostate carcinoma); BE2-C (neuroblastoma) and MiaPaCa-2 (pancreatic carcinoma); together with the one non-tumour derived normal breast cell line (MCF10A). All cell lines were incubated in a humidified atmosphere 5% CO2 at 37 °C. The cancer cell lines were maintained in Dulbecco’s modified Eagle’s medium (DMEM; Sigma, Australia) supplemented with foetal bovine serum (10%), sodium pyruvate (10 mM), penicillin (100 IUmL^−1), streptomycin (100 µg mL^−1), and L-glutamine (2 mM).
(§3) Growth inhibition was determined by plating cells in duplicate in medium (100 µL) at a density of 2500–4000 cells per well in 96-well plates. On day 0 (24 h after plating), when the cells are in logarithmic growth, medium (100 µL) with or without the test agent was added to each well. After a 72-h drug exposure, growth inhibitory effects were evaluated using the MTT (3-(4,5-dimethyltiazol-2-yl)-2,5-diphenyltetrazolium bromide) assay and absorbance read at 540 nm. The percentage growth inhibition was calculated at a fixed concentration of 25 µM, based on the difference between the optical density values on day 0 and those at the end of drug exposure. Each data point is the mean ± the standard error of the mean (SEM) calculated from three replicates, which were performed on separate occasions and separate cell line passages.

[1] = test system: H460 lung carcinoma cells; experiment: Cancer screening, MTT growth inhibition; assay type: cell-based; settings: 72-h exposure; for inhibition at 25 µM / GI50: Homo sapiens; for inhibition at 25 µM: NCI-H460, 25 µM, read-out: H460 Lung Carcinoma, Percentage (%) Cell Growth Inhibition in response to 25 µM of Drug; for GI50: NCI-H460, dose response, read-out: H460 Lung Carcinoma, GI50 = Concentration (µM) that inhibits cell growth by 50%
Procedure: as §1, §2, §3

[2] = test system: A431 skin carcinoma cells; experiment: Cancer screening, MTT growth inhibition; assay type: cell-based; settings: 72-h exposure; for inhibition at 25 µM / GI50: Homo sapiens; for inhibition at 25 µM: A-431, 25 µM, read-out: A431 Skin Carcinoma, Percentage (%) Cell Growth Inhibition in response to 25 µM of Drug; for GI50: A-431, dose response, read-out: A431 Skin Carcinoma, GI50 = Concentration (µM) that inhibits cell growth by 50%
Procedure: as §1, §2, §3

[3] = test system: HT29 colon carcinoma cells; experiment: Cancer screening, MTT growth inhibition; assay type: cell-based; settings: 72-h exposure; for inhibition at 25 µM / GI50: Homo sapiens; for inhibition at 25 µM: HT-29, 25 µM, read-out: HT29 Colon Carcinoma, Percentage (%) Cell Growth Inhibition in response to 25 µM of Drug; for GI50: HT-29, dose response, read-out: HT29 Colon Carcinoma, GI50 = Concentration (µM) that inhibits cell growth by 50%
Procedure: as §1, §2, §3

[4] = test system: Du145 prostate carcinoma cells; experiment: Cancer screening, MTT growth inhibition; assay type: cell-based; settings: for inhibition at 25 µM: Homo sapiens, DU-145, 72-h exposure, read-out: Du145 Prostate Carcinoma, Percentage (%) Cell Growth Inhibition in response to 25 µM of Drug; for Du145 Prostate Carcinoma, Percentage (%) Cell Growth Inhibition in response to 25 µM of Drug: 72-h exposure
Procedure: as §1, §2, §3

[5] = molecular target: T1, α-D-mannosidase (from Jack bean) (Canavalia ensiformis, UniProt C0HJB3); experiment: Glycosidase inhibition, Table 6 (Laboratory 1); assay type: biochemical
T1 construct: purchased Sigma-Aldrich Co
T1 sequence (C0HJB3 1-981): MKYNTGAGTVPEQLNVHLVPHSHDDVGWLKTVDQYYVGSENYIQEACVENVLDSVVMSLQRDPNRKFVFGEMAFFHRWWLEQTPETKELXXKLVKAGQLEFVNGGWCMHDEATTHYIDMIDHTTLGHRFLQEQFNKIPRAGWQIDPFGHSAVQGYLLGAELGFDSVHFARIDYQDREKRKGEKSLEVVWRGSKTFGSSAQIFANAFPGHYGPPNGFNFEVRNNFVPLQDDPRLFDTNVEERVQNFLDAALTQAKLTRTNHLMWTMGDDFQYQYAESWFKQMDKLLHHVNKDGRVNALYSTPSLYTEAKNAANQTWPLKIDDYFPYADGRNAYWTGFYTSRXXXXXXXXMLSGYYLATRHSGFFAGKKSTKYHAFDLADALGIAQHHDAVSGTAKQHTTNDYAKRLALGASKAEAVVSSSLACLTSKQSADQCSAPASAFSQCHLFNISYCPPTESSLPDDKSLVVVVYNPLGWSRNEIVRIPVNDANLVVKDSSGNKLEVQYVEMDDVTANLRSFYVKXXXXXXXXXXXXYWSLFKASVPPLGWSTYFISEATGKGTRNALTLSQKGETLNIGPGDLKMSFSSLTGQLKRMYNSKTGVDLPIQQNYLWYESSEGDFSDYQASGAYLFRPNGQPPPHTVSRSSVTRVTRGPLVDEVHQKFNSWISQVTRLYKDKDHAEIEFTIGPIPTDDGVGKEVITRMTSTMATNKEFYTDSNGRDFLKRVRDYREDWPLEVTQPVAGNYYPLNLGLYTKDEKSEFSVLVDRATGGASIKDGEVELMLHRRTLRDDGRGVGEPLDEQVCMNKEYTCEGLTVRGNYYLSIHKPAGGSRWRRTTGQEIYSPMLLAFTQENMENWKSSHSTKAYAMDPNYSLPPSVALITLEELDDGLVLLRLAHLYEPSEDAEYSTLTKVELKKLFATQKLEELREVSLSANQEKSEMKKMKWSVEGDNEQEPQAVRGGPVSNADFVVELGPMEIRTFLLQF
Excerpt: The enzymes α-D-glucosidase (from yeast), β-D-glucosidases (from almond and bovine liver), α-D-galactosidase (from coffee beans), β-D-galactosidase (from bovine liver), α-D-mannosidase (from Jack bean), β-D-mannosidase (from snail), α-L-rhamnosidase (from Penicillium decumbens), α-L-fucosidase (from bovine kidney), trehalase (from porcine kidney), β-D-glucuronidases (from E. coli and bovine liver), amyloglucosidase (from A. niger), para-nitrophenyl glycosides, and various disaccharides were purchased from Sigma-Aldrich Co. (St. Louis, MO, USA).
Brush border membranes were prepared from the rat small intestine according to the method of Kessler et al., and were assayed at pH 6.8 for rat intestinal maltase using maltose. For rat intestinal maltase, porcine kidney trehalase, and A. niger amyloglucosidase activities, the reaction mixture contained maltose (25 mM) and the appropriate amount of enzyme, and the incubations were performed for 10–30 min at 37 °C. The reaction was stopped by heating at 100 °C for 3 min. After centrifugation (600× g; 10 min), the resulting reaction mixture was added to the Glucose CII-test Wako (Wako Pure Chemical Ind., Osaka, Japan). The absorbance at 505 nm was measured to determine the amount of the released D-glucose. Other glycosidase activities were determined using an appropriate para-nitrophenyl glycoside as substrate at the optimum pH of each enzyme. The reaction mixture contained the substrate (2 mM) and the appropriate amount of enzyme. The reaction was stopped by the addition of Na2CO3 (400 mM). The released para-nitrophenol was measured spectrometrically at 400 nm. All reactions run in methanol.

Compound	inhibition at 25 µM (SJ-G2 glioblastoma cells)	inhibition at 25 µM [1]	inhibition at 25 µM [2]	inhibition at 25 µM [3]	inhibition at 25 µM [4]	inhibition at 1000 µM [5]	SJ-G2 Glioblastoma, Percentage (%) Cell Growth Inhibition in response to 25 µM of Drug (SJ-G2 glioblastoma cells)	H460 Lung Carcinoma, Percentage (%) Cell Growth Inhibition in response to 25 µM of Drug [1]	A431 Skin Carcinoma, Percentage (%) Cell Growth Inhibition in response to 25 µM of Drug [2]	HT29 Colon Carcinoma, Percentage (%) Cell Growth Inhibition in response to 25 µM of Drug [3]	Du145 Prostate Carcinoma, Percentage (%) Cell Growth Inhibition in response to 25 µM of Drug [4]	α-D-Mannosidase Jack Bean, inhibition % at 100 μM ([5]; 100 μM)	α-D-Mannosidase Jack Bean, inhibition % at 1000 μM ([5]; 1000 μM)	inhibition at 100 µM [5]	GI50 [1]	GI50 [2]	GI50 [3]
OC1O[C@@H]2[C@H]([C@H]1O)N(Cc1ccccc1)C[C@H]2O (stereo partly drawn) [Compound 4, N-Benzyl-3,6-dideoxy-3,6-imino-D-gulofuranose]	12%	8%	11%	11%	0%	7.5%	–	–	–	–	–	–	–	–	–	–	–
N[C@@H](Cc1ccc(B(O)O)cc1)C(=O)O [^10B-BPA, reference compound]	–	–	–	–	–	–	* 5 ± 10%	* 8 ± 5%	* 4 ± 4%	* 15 ± 4%	* 15 ± 9%	^c NI ^d (0%)	–	–	–	–	–
borocaptate sodium [BSH, reference compound]	–	–	–	–	–	–	* 3 ± 8%	* 8 ± 2%	* <0%	* 3 ± 2%	* 0 ± 8%	–	^a NI ^b (7.9%)	–	–	–	–
N[C@@H](Cc1ccc(B(O)O)cc1)C(=O)O [BPA, 4-borono-L-phenylalanine, reference compound]	5%	7%	4%	14%	19%	–	–	–	–	–	–	–	–	–	–	–	–
CC1(C)O[C@H]2O[C@H]3[C@@H]([C@H]2O1)N(Cc1ccccc1)C[C@H]3O [Compound 3, N-Benzyl-3,6-dideoxy-3,6-imino-1,2-O-isopropylidene-α-D-gulofuranose]	10%	9%	7%	10%	< 0%	–	–	–	–	–	–	–	–	0.9%	–	–	–
CC1(C)O[C@H]2O[C@H]3[C@@H]([C@H]2O1)N(Cc1ccc(B2OC(C)(C)C(C)(C)O2)cc1)C[C@H]3O [para 6, N-(4-Methylphenylboronic acid pinacol ester)-3,6-dideoxy-3,6-imino-1,2-O-isopropylidene-α-D-gulofuranose]	9%	10%	6%	8%	< 0%	–	–	–	–	–	–	–	–	0%	–	–	–
OC[C@H](O)[C@@H]1[C@H](O)[C@H](O)CN1Cc1ccc(B(O)O)cc1 [para 8, N-(4-Methylphenylboronic acid)-1,4-dideoxy-1,4-imino-L-gulitol]	–	1 ± 2%	0%	5 ± 2%	–	0%	–	–	–	–	–	–	–	–	> 50 µM	> 50 µM	> 50 µM
OB(O)c1ccc(CN2CC(O)C3OC(O)C(O)C32)cc1 [para 7, N-(4-Methylphenylboronic acid)-3,6-dideoxy-3,6-imino-D-gulofuranose]	–	9 ± 6%	9 ± 5%	15 ± 3%	–	0%	–	–	–	–	–	–	–	–	> 50 µM	> 50 µM	> 50 µM
OC[C@H](O)[C@@H]1[C@H](O)[C@H](O)CN1Cc1ccccc1 [Compound 5, N-Benzyl-1,4-dideoxy-1,4-imino-L-gulitol]	–	0%	2%	2 ± 3%	–	–	–	–	–	–	–	–	–	4.4%	> 50 µM	> 50 µM	> 50 µM
